Results as given in ChEMBL document CHEMBL4145625 (J Med Chem, 2018).

Key:
[1] = system: NCI-H460; assay: cells; type: functional, cell-based; details: Homo sapiens, NCI-H460, 96 h;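 further: cytotoxicity determined with an MTT assay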
Description: Cytotoxicity against human NCI-H460 cells after 96 hrs by MTT assay

[2] = molecular target: Phosphatidylinositol 4,5-bisphosphate 3-kinase catalytic subunit alpha isoform (Homo sapiens, UniProt P42336); assay: Inhibition of PI3Kalpha (unknown origin) using PIP2 as substrate by Kinase-Glo assay
Chain of Phosphatidylinositol 4,5-bisphosphate 3-kinase catalytic subunit alpha isoform (P42336 whole entry, canonical isoform): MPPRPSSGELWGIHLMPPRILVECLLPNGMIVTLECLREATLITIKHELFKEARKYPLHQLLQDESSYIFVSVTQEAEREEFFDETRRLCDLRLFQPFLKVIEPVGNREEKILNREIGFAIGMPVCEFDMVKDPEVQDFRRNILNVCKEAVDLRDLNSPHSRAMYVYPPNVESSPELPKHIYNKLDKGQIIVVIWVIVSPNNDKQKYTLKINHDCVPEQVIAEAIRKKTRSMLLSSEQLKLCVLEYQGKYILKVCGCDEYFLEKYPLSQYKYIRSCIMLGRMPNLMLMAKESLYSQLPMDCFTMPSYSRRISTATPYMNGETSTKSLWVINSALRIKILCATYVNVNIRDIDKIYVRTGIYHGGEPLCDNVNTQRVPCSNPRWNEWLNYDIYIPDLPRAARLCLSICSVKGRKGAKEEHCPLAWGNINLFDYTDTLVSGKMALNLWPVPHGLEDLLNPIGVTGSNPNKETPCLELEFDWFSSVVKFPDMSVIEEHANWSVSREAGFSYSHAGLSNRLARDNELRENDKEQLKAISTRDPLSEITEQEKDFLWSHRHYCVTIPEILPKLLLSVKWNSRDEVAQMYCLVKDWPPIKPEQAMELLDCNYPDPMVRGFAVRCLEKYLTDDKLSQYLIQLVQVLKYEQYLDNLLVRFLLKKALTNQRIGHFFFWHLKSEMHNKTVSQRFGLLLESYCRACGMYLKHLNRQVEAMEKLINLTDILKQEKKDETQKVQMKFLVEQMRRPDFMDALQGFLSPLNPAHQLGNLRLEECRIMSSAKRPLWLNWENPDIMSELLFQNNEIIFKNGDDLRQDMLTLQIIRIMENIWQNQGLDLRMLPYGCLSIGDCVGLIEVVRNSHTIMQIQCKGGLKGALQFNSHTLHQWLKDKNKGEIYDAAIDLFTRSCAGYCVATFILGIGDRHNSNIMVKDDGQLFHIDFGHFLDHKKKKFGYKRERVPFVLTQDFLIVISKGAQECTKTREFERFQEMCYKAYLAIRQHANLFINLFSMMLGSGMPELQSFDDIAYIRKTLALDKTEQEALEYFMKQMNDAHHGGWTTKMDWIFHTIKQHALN

Structure (SMILES)	IC50 [1]	IC50 [2]
Cc1nc(N)nc2c(OC3CCOCC3)cc(-c3cnc(Cl)c(NS(=O)(=O)c4ccc(F)cc4)c3)cc12	1200 nM	1.7 nM
COc1ncc(-c2cc(OC3CCOCC3)c3nc(N)nc(C)c3c2)cc1NS(=O)(=O)c1ccc(Cl)s1		1.1 nM
COc1ncc(-c2cc(OCC3CCOC3)c3nc(N)nc(C)c3c2)cc1NS(=O)(=O)c1ccc(F)cc1F (stereo unspecified)		1.2 nM
COc1ncc(-c2cc(OC3CCOCC3)c3nc(N)nc(C)c3c2)cc1NS(=O)(=O)c1ccc(F)cc1	96 nM	1.2 nM
COc1ncc(-c2cc(OC3CCCCC3)c3nc(N)nc(C)c3c2)cc1NS(=O)(=O)c1ccc(F)cc1F	96 nM	0.95 nM
COc1ncc(-c2cc(OC)c3nc(N)nc(C)c3c2)cc1NS(=O)(=O)c1ccc(F)cc1F	280 nM	
COc1ncc(-c2cc(O[C@H]3CCOC3)c3nc(N)nc(C)c3c2)cc1NS(=O)(=O)c1ccc(F)cc1F	94 nM	0.83 nM
COc1ncc(-c2cc(OC3CCOCC3)c3nc(N(C)C)nc(C)c3c2)cc1NS(=O)(=O)c1ccc(F)cc1F	4300 nM	125 nM
COc1ncc(-c2cc(OC3CCC3)c3nc(N)nc(C)c3c2)cc1NS(=O)(=O)c1ccc(F)cc1F		0.95 nM
CNc1nc(C)c2cc(-c3cnc(OC)c(NS(=O)(=O)c4ccc(F)cc4F)c3)cc(O[C@H]3CCOC3)c2n1		1.4 nM
CNc1nc(C)c2cc(-c3cnc(OC)c(NS(=O)(=O)c4ccc(F)cc4F)c3)cc(OCC3CCOC3)c2n1 (stereo unspecified)	310 nM	2 nM
COc1ncc(-c2cc3c(C)nc(N)nc3n([C@H]3CC[C@H](OCCO)CC3)c2=O)cc1NS(=O)(=O)c1ccc(F)cc1F	360 nM	0.87 nM
COc1ncc(-c2cc(OC3CCOCC3)c3nc(N)nc(C)c3c2)cc1F	1100 nM	16 nM
COc1ncc(-c2cc(OC3CCOCC3)c3nc(N)nc(C)c3c2)cc1NS(C)(=O)=O	860 nM	2.6 nM
Cc1ncc(-c2cc(OC3CCOCC3)c3nc(N)nc(C)c3c2)cc1NS(=O)(=O)c1ccc(F)cc1F	2100 nM	1.4 nM
COc1ncc(-c2cc(OC3CCOCC3)c3nc(N)nc(C)c3c2)cc1NS(=O)(=O)c1ccc(F)cc1Cl	17 nM	1.1 nM
COc1ncc(-c2cc(OCC3CCOCC3)c3nc(N)nc(C)c3c2)cc1NS(=O)(=O)c1ccc(F)cc1F	21 nM	0.73 nM
COc1ncc(-c2cc(OC3CCOCC3)c3nc(NC(C)=O)nc(C)c3c2)cc1NS(C)(=O)=O	3200 nM	11 nM

Structure (SMILES)	IC50 [1]	IC50 [2]
COc1ncc(-c2cc(OCCN3CCOCC3)c3nc(N)nc(C)c3c2)cc1NS(=O)(=O)c1ccc(F)cc1F	1100 nM	3.3 nM
COCCOc1cc(-c2cnc(OC)c(NS(=O)(=O)c3ccc(F)cc3F)c2)cc2c(C)nc(N)nc12	200 nM	
COc1ncc(-c2cc(OCC3CC3)c3nc(N)nc(C)c3c2)cc1NS(=O)(=O)c1ccc(F)cc1F	200 nM	1.4 nM
CNc1nc(C)c2cc(-c3cnc(OC)c(NS(=O)(=O)c4ccc(F)cc4F)c3)cc(OC3CCCC3)c2n1		6.6 nM
CNc1nc(C)c2cc(-c3cnc(OC)c(NS(=O)(=O)c4ccc(F)cc4F)c3)cc(OC3CCCCC3)c2n1	1700 nM	9.8 nM
COc1ncc(-c2cc(OC3CCC(F)(F)CC3)c3nc(N)nc(C)c3c2)cc1NS(=O)(=O)c1ccc(F)cc1F	83 nM	1.6 nM
CNc1nc(C)c2cc(-c3cnc(OC)c(NS(=O)(=O)c4ccc(F)cc4F)c3)cc(OCC3CCOCC3)c2n1	400 nM	1.8 nM
COc1ccc(-c2cc(OC3CCOCC3)c3nc(N)nc(C)c3c2)cn1	980 nM	31 nM
COc1ncc(-c2cc(OCC3CCCO3)c3nc(N)nc(C)c3c2)cc1NS(=O)(=O)c1ccc(F)cc1F (stereo unspecified)		1.1 nM
COc1ncc(-c2cc(OC3CCOCC3)c3nc(N)nc(C)c3c2)cc1NS(=O)(=O)C1CC1	930 nM	2.5 nM
CCNc1nc(C)c2cc(-c3cnc(OC)c(NS(=O)(=O)c4ccc(F)cc4F)c3)cc(OC3CCOCC3)c2n1	240 nM	1.5 nM
CNc1nc(C)c2cc(-c3cnc(OC)c(NS(=O)(=O)c4ccc(F)cc4F)c3)cc(OC3CCC3)c2n1		4.1 nM
COc1ncc(-c2cc(OC3CCOCC3)c3nc(NCC4CC4)nc(C)c3c2)cc1NS(=O)(=O)c1ccc(F)cc1F	410 nM	5.4 nM
COc1ncc(-c2cc(OC3CCOCC3)c3nc(NC(C)=O)nc(C)c3c2)cc1NS(=O)(=O)c1ccc(F)cc1F	53 nM	1.4 nM
COc1ncc(-c2cc(OC(C)C)c3nc(N)nc(C)c3c2)cc1NS(=O)(=O)c1ccc(F)cc1F	140 nM	0.7 nM
COc1ncc(-c2cc(OC3CCN(C)CC3)c3nc(N)nc(C)c3c2)cc1NS(=O)(=O)c1ccc(F)cc1F	660 nM	4.8 nM
CNc1nc(C)c2cc(-c3cnc(OC)c(NS(=O)(=O)c4ccc(F)cc4F)c3)cc(OC3CCOC(C)(C)C3)c2n1 (stereo unspecified)	250 nM	1.8 nM
